Measurements reported in paper PMC6137095 (Scientific Reports, 2018).

Experiments:
Type in all cases: binding
mSin3B PAH1 domain [1] = target: T1, mSin3B PAH1 domain (Mus musculus, UniProt Q62141); assay: 1H-15N HSQC, STD and WaterLOGSY NMR (weak/moderate)
T1 construct: gene Sin3b; PAH1 domain, a.a; 28–107 with a Met at the N-terminus (GST fusion for WaterLOGSY/STD)
T1 sequence (Q62141 28-107): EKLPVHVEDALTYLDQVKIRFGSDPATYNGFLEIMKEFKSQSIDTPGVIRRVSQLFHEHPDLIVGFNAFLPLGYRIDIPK

mSin3B PAH1 domain [2] = target: T1, mSin3B PAH1 domain; assay: 1H-15N HSQC titration, STD and WaterLOGSY NMR
mSin3B PAH1 domain [3] = target: T1, mSin3B PAH1 domain; assay: STD, WaterLOGSY and HSQC NMR
mSin3B PAH1 domain [4] = target: T1, mSin3B PAH1 domain; assay: WaterLOGSY NMR titration; STD and 1H-15N HSQC

Structure (SMILES): COc1cc(CNC(=O)CCCC/C=C/C(C)C)ccc1O [YN39]
- 1H-15N HSQC, STD and WaterLOGSY NMR (weak/moderate) (mSin3B PAH1 domain [1]): only YN39, YN40, and YN42 showed clear signals in the STD spectra

Structure (SMILES): C#CC(C)(O)CCc1cc(C)c(OC)cc1C (stereo not shown) [YN3]
- 1H-15N HSQC titration, STD and WaterLOGSY NMR (mSin3B PAH1 domain [2]): four compounds YN29, YN31, YN3, and YN28, have a strong affinity for the mSin3B PAH1 domain

Structure (SMILES): Clc1ccc2c(c1)C(N1CCNCC1)=Nc1ccccc1O2 [YN42]
- 1H-15N HSQC, STD and WaterLOGSY NMR (weak/moderate) (mSin3B PAH1 domain [1]): only YN39, YN40, and YN42 showed clear signals in the STD spectra

Structure (SMILES): Fc1ccc([C@@H]2CCNC[C@H]2COc2ccc3c(c2)OCO3)cc1 [paroxetine]
- STD, WaterLOGSY and HSQC NMR (mSin3B PAH1 domain [3]): STD, WaterLOGSY, and HSQC experiments showed that paroxetine binds strongly to the PAH1 domain of mSin3B

Structure (SMILES): CNCCCC12CCC(c3ccccc31)c1ccccc12 [YN40]
- 1H-15N HSQC, STD and WaterLOGSY NMR (weak/moderate) (mSin3B PAH1 domain [1]): only YN39, YN40, and YN42 showed clear signals in the STD spectra

Structure (SMILES): CN(C)CC/C=C1/c2ccccc2Sc2ccc(Cl)cc21 [YN28, chlorprothixene]
- Kd (mSin3B PAH1 domain [4]): 35 ± 11 µM

Structure (SMILES): CN(C)CCCN1c2ccccc2Sc2ccc(Cl)cc21 [YN29, chlorpromazine]
- Kd (mSin3B PAH1 domain [4]): 15 ± 4.2 µM
